# Data: patent publication US20240376099A1, “COMPOUNDS AND COMPOSITIONS AS INHIBITORS OF ENDOSOMAL TOLL-LIKE RECEPTORS” (Novartis AG, priority 2016, published 2024)
# Biological target: T1, TLR7 (Homo sapiens, UniProt Q9NYK1)
# T1 construct: Fresh blood was collected from normal human donors; endogenous in cells; host or cells: human PBMCs from fresh donor blood
# T1 sequence (Q9NYK1 27-1049): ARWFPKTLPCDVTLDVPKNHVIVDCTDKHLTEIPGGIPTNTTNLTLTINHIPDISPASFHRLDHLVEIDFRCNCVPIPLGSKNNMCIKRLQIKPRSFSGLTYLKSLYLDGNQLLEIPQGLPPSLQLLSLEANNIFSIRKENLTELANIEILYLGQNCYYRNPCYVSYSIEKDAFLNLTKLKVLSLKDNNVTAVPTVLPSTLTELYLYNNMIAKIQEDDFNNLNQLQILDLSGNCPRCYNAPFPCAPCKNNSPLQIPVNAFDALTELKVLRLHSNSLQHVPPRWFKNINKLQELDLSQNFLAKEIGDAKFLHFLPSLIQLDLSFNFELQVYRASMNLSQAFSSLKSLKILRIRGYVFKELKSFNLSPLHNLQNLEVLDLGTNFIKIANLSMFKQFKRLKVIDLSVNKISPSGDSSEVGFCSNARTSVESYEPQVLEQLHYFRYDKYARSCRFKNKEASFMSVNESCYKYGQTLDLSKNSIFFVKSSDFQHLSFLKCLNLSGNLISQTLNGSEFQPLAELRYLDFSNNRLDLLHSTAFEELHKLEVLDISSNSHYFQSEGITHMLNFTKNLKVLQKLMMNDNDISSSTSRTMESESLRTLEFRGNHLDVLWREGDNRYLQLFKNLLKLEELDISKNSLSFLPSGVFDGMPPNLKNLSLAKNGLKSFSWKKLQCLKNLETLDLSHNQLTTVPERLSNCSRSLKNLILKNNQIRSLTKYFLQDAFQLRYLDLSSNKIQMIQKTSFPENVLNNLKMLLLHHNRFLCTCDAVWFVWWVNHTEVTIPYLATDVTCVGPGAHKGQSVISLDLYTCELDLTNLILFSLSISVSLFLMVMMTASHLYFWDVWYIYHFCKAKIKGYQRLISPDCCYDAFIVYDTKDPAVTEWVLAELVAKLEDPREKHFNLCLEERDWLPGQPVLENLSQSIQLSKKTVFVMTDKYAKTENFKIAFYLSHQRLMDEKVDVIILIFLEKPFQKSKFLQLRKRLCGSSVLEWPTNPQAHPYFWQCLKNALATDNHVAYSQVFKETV
# Assay: huPBMC TLR7 Antagonist IFNα Assay
# Format: cell-based
# Details: human PBMCs stimulated with ssRNA40 10 μg/mL (DOTAP), 14-16 hrs; IFNα2b AlphaLISA read-out
# Outline: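 Human PBMCs from fresh donor blood (150,000 cells/well) stimulated 14–16 h at 37 °C with DOTAP-complexed ssRNA40 (final 1 μg/ml for TLR8, 10 μg/mL for TLR7) or ODN2216 (final 0.3 μM, TLR9), 0.25% DMSO, ten-point 1/3 compound dilutions. Supernatant IL-6 read by HTRF (TLR8); IFNα by IFNα2b AlphaLISA (TLR7/TLR9).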
row,SMILES,IC50
1,"Cc1cc(N2CCc3c(c(C)nn3CC34CCC(N(C)C5CCC5)(CC3)CC4)C2)c2cnn(C)c2n1 [compound 79, N-cyclobutyl-4-((5-(1,6-dimethyl-1H-pyrazolo[3,4-b]pyridin-4-yl)-3-methyl-4,5,6,7-tetrahydro-1H-pyrazolo[4,3-c]pyridin-1-yl)methyl)-N-methylbicyclo[2.2.2]octan-1-amine]",4 nM
2,"Cc1nn(CC23CCC(N4CCCC4)(CC2)CC3)c2c1CN(c1ccnc(-c3ccccc3)c1)CC2 [compound 85, 3-methyl-5-(2-phenylpyridin-4-yl)-1-((4-(pyrrolidin-1-yl)bicyclo[2.2.2]octan-1-yl)methyl)-4,5,6,7-tetrahydro-1H-pyrazolo[4,3-c]pyridine]",46 nM
3,"Cc1cc(N2CCc3c(c(C)nn3CCC34CCC(N)(CC3)CC4)C2)c2cnn(C)c2n1 [compound 91, 4-(2-(5-(1,6-dimethyl-1H-pyrazolo[3,4-b]pyridin-4-yl)-3-methyl-4,5,6,7-tetrahydro-1H-pyrazolo[4,3-c]pyridin-1-yl)ethyl)bicyclo[2.2.2]octan-1-amine]",22 nM
4,"Cc1cc(N2CCc3c(c(C)nn3CC34CCC(N)(CC3)CC4)C2)c2ccnc(C)c2n1 [compound 92, 4-((5-(2,8-dimethyl-1,7-naphthyridin-4-yl)-3-methyl-4,5,6,7-tetrahydro-1H-pyrazolo[4,3-c]pyridin-1-yl)methyl)bicyclo[2.2.2]octan-1-amine]",160 nM

# More lines, in order of falling IC50, values ahead:
row,IC50,SMILES
1,81 nM,"Cc1cc(N2CCc3c(c(C)nn3CC34CCC(N5CCCC5)(CC3)CC4)C2)c2ccncc2n1 [compound 86, 2-methyl-4-(3-methyl-1-((4-(pyrrolidin-1-yl)bicyclo[2.2.2]octan-1-yl)methyl)-6,7-dihydro-1H-pyrazolo[4,3-c]pyridin-5(4H)-yl)-1,7-naphthyridine]"
2,11 nM,"Cc1cc(N2CCc3c(c(C)nn3CC34CCC(N5CC[C@H](O)C5)(CC3)CC4)C2)c2cnn(C)c2n1 [compound 75, (S)-1-(4-((5-(1,6-dimethyl-1H-pyrazolo[3,4-b]pyridin-4-yl)-3-methyl-4,5,6,7-tetrahydro-1H-pyrazolo[4,3-c]pyridin-1-yl)methyl)bicyclo[2.2.2]octan-1-yl)pyrrolidin-3-ol]"
3,2 nM,"Cc1cc(N2CCc3c(c(C)nn3CC34CCC(N5C[C@H](O)[C@@H](O)C5)(CC3)CC4)C2)c2cnn(C)c2n1 [compound 80, (3S,4S)-1-(4-((5-(1,6-dimethyl-1H-pyrazolo[3,4-b]pyridin-4-yl)-3-methyl-4,5,6,7-tetrahydro-1H-pyrazolo[4,3-c]pyridin-1-yl)methyl)bicyclo[2.2.2]octan-1-yl)pyrrolidine-3,4-diol]"
